Numbers after ± are expanded uncertainties.
Conditions: 101.33 kPa, Liquid, Buoyancy - hydrostatic balance

CCCCCC[n+]1ccn(C)c1.O=S(=O)([N-]S(=O)(=O)C(F)(F)F)C(F)(F)F
Conditions | mass density [kg/m3]
262.98 K | 1405.31 ± 0.54
268.26 K | 1400.21 ± 0.54
272.74 K | 1395.9 ± 0.54
278.03 K | 1390.98 ± 0.54
283.18 K | 1385.8 ± 0.54
288.12 K | 1381.67 ± 0.54
292.84 K | 1377.27 ± 0.54
298.15 K | 1372.76 ± 0.54
303.13 K | 1368.35 ± 0.54
308.26 K | 1362.94 ± 0.54
313.34 K | 1358.8 ± 0.54
318.28 K | 1354.33 ± 0.54
323.34 K | 1349.1 ± 0.54
328.18 K | 1345.78 ± 0.54
332.77 K | 1341.44 ± 0.54
338.51 K | 1336.76 ± 0.54
343.65 K | 1332.79 ± 0.54
348.22 K | 1328.79 ± 0.54
352.66 K | 1324.84 ± 0.54
358.06 K | 1320.79 ± 0.54
364.78 K | 1314.72 ± 0.54

C[n+]1cc[nH]c1.O=S(=O)([N-]S(=O)(=O)C(F)(F)F)C(F)(F)F [1-methylimidazolium bis(trifluoromethylsulfonyl)imide]
Conditions | mass density [kg/m3]
323.28 K | 1614.04 ± 2.1
325.58 K | 1610.84 ± 2.1
328.01 K | 1607.46 ± 2.1
330.51 K | 1605.18 ± 2.1
333.62 K | 1601.54 ± 2.1
335.65 K | 1599.35 ± 2.1
338.58 K | 1596.52 ± 2.1
340.97 K | 1593.47 ± 2
343.62 K | 1590.71 ± 2

CCCCn1cc[n+](C)c1C.F[P-](F)(F)(F)(F)F [1-butyl-2,3-dimethylimidazolium hexafluorophosphate]
Conditions | mass density [kg/m3]
308.17 K | 1342.4 ± 0.49
313.09 K | 1338.43 ± 0.48
318.12 K | 1334.34 ± 0.48
323.15 K | 1330.39 ± 0.48
328.24 K | 1326.32 ± 0.48
333.37 K | 1322.54 ± 0.48
338.85 K | 1318.34 ± 0.48
343.33 K | 1314.8 ± 0.48
347.97 K | 1310.87 ± 0.48
352.71 K | 1307.2 ± 0.48
357.94 K | 1302.89 ± 0.47
364.63 K | 1298.26 ± 0.47

CCCn1cc[n+](C)c1.F[P-](F)(F)(F)(F)F [1-methyl-3-propylimidazolium hexafluorophosphate]
Conditions | mass density [kg/m3]
303.08 K | 1410.96 ± 0.46
313.18 K | 1402.37 ± 0.45
318.04 K | 1398.33 ± 0.45
323.07 K | 1393.53 ± 0.45
328.22 K | 1389.63 ± 0.45
333.39 K | 1385.32 ± 0.45
338.41 K | 1381.11 ± 0.44
343.27 K | 1377.03 ± 0.44
348.16 K | 1372.97 ± 0.44
352.56 K | 1369.14 ± 0.44
358.11 K | 1364.85 ± 0.44
364.89 K | 1359.36 ± 0.44

CCCC[n+]1cccc(C)c1.F[P-](F)(F)(F)(F)F [1-butyl-3-methylpyridinium hexafluorophosphate]
Conditions | mass density [kg/m3]
322.98 K | 1321.09 ± 0.35
327.57 K | 1317.44 ± 0.34
333.44 K | 1312.89 ± 0.34
338.78 K | 1308.72 ± 0.34
343.67 K | 1304.93 ± 0.34
348.19 K | 1301.53 ± 0.34
353.1 K | 1297.87 ± 0.33
358.08 K | 1294.06 ± 0.33
364.61 K | 1289.01 ± 0.33

CCn1cc[n+](C)c1.O=S(=O)([N-]S(=O)(=O)C(F)(F)F)C(F)(F)F
Conditions | mass density [kg/m3]
261.46 K | 1556.58 ± 1
268.29 K | 1548.72 ± 1
273.3 K | 1544.02 ± 1
278.37 K | 1539.04 ± 1
282.48 K | 1535.02 ± 1
287.45 K | 1529.96 ± 1
293.11 K | 1524.41 ± 1
298.13 K | 1519.52 ± 1
302.98 K | 1514.33 ± 1
308.32 K | 1508.35 ± 1
313.89 K | 1503.28 ± 1
318.09 K | 1498.65 ± 1
323.34 K | 1493.84 ± 1
328.03 K | 1488.18 ± 1
333.55 K | 1483.58 ± 1
337.88 K | 1479.01 ± 1
342.95 K | 1473.82 ± 1
348.1 K | 1469.36 ± 1
352.98 K | 1464.95 ± 1
357.53 K | 1460.04 ± 1
363.55 K | 1453.65 ± 1

CCCC[n+]1ccn(C)c1.O=S(=O)([N-]S(=O)(=O)C(F)(F)F)C(F)(F)F
Conditions | mass density [kg/m3]
274.86 K | 1458.44 ± 0.56
277.17 K | 1456.4 ± 0.56
281.91 K | 1452.1 ± 0.56
287.89 K | 1446.21 ± 0.56
293.45 K | 1441.4 ± 0.56
298.34 K | 1436.71 ± 0.56
303.07 K | 1432.1 ± 0.56
308.18 K | 1426.64 ± 0.56
313.04 K | 1422.13 ± 0.56
318.02 K | 1417.45 ± 0.56
323.1 K | 1412.39 ± 0.56
328.17 K | 1407.64 ± 0.56
333.42 K | 1403.16 ± 0.56
338.42 K | 1398.52 ± 0.56
343.02 K | 1394.25 ± 0.56
348.36 K | 1389.71 ± 0.56
352.89 K | 1385.06 ± 0.56
358.03 K | 1380.66 ± 0.56
364.37 K | 1374.57 ± 0.56

Reference: the NIST ThermoML archive (doi:10.1016/j.jct.2014.04.017)
